COC(=O)Nc1nc2ccccc2[nH]1
solubility (mole fraction)
Details | 278.15 K | 283.15 K | 288.15 K | 293.15 K | 298.15 K | 303.15 K | 308.15 K | 313.15 K | 318.15 K
in DMF | 0.000786 | 0.000861 | 0.000931 | 0.00101 | 0.0011 | 0.00119 | 0.00128 | 0.00138 | 0.00148
in ethanol | 8.29e-06 | 1.14e-05 | 1.66e-05 | 2.28e-05 | 3.16e-05 | 4.28e-05 | 5.74e-05 | 7.63e-05 | 9.98e-05
in methanol | 3.23e-05 | 4.07e-05 | 5.29e-05 | 6.59e-05 | 7.95e-05 | 9.95e-05 | 0.000121 | 0.000147 | 0.000176
in n-propanol | 3.28e-06 | 4.97e-06 | 8.18e-06 | 1.24e-05 | 1.85e-05 | 2.73e-05 | 4.04e-05 | 5.82e-05 | 8.34e-05
in water | 3.3e-07 | 4e-07 | 4.91e-07 | 6e-07 | 7.35e-07 | 8.59e-07 | 1.02e-06 | 1.21e-06 | 1.43e-06

From BigSolDB 2.1
